Results as given in patent US6162806A, “Active oxygen scavengers containing pterin derivatives” (Artemis, Inc., priority 1996, dated 2000).

What was measured:
[1] = Active oxygen scavenging activity, active oxygen derived from potassium superoxide in DMSO (electron spin resonance spectroscopy); conditions: ESR at 77K, vs no addition
Procedure: Potassium superoxide (KO2) (28 mg) was added to dimethyl sulfoxide (DMSO) (20 ml) to prepare a saturated solution so that active oxygens were generated in DMSO. As a standard substance, 2,2,6,6-tetramethylpiperidine-N-oxide (TEMPO) was used. TEMPO was dissolved in DMSO in the concentrations of 0.1, 0.3, 0.5, 0.7, 1, 1.2, or 1.5 mM. The electron spin resonance signals obtained (measured at 77K) were integrated to prepare a standard curve.

[2] = system: active oxygens generated by PMA-stimulated polymorphonuclear leukocytes (PMN); test: Active oxygen scavenging activity, PMN-PMA system (CLA chemiluminescence); assay type: cell-based, human (healthy adult); conditions: 37° C., approximately 10 minutes
Procedure: Venous blood (10 ml) was taken from a healthy adult, and polymorphonuclear leukocytes (abbreviated to PMN) were isolated therefrom. The leukocytes were suspended in HBSS (Hanks' balanced salt solution) to approximately 1×10^6 cells/ml. 2-Methyl-6-phenyl-3,7-dihydroimidazo-(1,2-a)-pyrazin-3-on (hereinafter referred to as CLA) as a chemiluminescent compound, that is, a compound which may generate chemiluminescence due to the presence of active oxygens, was dissolved in a phosphate buffered saline (hereinafter referred to as PBS) to the concentration of 50 μM. Phorbol myristate acetate (abbreviated to PMA) as a polymorphonuclear leukocyte stimulating agent, that is, a compound which may generate active oxygens by stimulating polymorphonuclear leukocytes, was dissolved in PBS to the concentration of 20 μg/ml. The PMN suspension, the CLA solution, and the PMA solution were cooled with ice for storage until use for measurement.
6-Formyl-pterin as the active ingredient of the active oxygen scavenger according to the present invention was dissolved in PBS to the concentrations of 100 μM, 250 μM, or 500 μM, and then warmed to 37° C. before measurement. PBS as a control was also warmed to 37° C. before measurement.
To polymorphonuclear leukocytes isolated from 2 ml of the PMN suspension by centrifugation, the 6-formyl-pterin solutions of various concentrations or PBS were added to adjust total volume to 1930 μl. The mixtures were poured into test tubes and warmed at 37° C. for 15 minutes. After adding the CLA solution (50 μl), the mixture was placed in a chemiluminescence reader and the measurement of an amount of chemiluminescence was started. After 1 minute from the beginning of the measurement, the PMA solution (20 μl) was injected into the test tube with a syringe. The measurement was performed at 37° C. for approximately 10 minutes while monitoring every 10 seconds.
FIG. 1 is a graph showing a total chemiluminescence amount obtained by accumulating chemiluminescence amounts measured every 10 seconds.

rats = test: Acute toxicity, intravenous; assay type: in vivo, rat; conditions: 6 mg/kg intravenously; 10 rats; observed for 3 months
Text: Acute toxicity of 6-formyl-pterin was examined, using rats.

[3] = system: delayed neuronal death (DND) in the cerebral hippocampus area; test: Suppression of delayed neuronal death in transient cerebral ischemia model gerbils (MAP2 staining of hippocampus); assay type: in vivo, gerbil; conditions: 50 mM in physiological saline (1 ml) intraperitoneally 30 minutes after resumption of bloodstream, after 1 week
Procedure: A neck of each gerbil (body weigh=approximately 80 g) under a general anesthesia was incised. Ambilateral carotids were visually ligated with clips to cut off a bloodstream. After 5 minutes, the bloodstream was resumed, and the incision was sutured. After 30 minutes from the resumption of the bloodstream, physiological saline (1 ml) was intraperitoneally administered to a control group of the gerbils, whereas 50 mM of 6-formyl-pterin in physiological saline (1 ml) was intraperitoneally administered to an administering group of the gerbils. Thereafter, gerbils came out from anesthesia and then were bred for 1 week. Then, a brain was extirpated from each gerbil under a general anesthesia. Tissue slices were prepared from the brain and stained with microtubule-associated protein 2 (MAP2) which can specifically stain neurons, to evaluate the degree of delayed neuronal death (DND) in the cerebral hippocampus area.
FIG. 3 is a photomicrograph of a slice of a cerebral hippocampus tissue from a completely normal gerbil which had not encountered hemostasis, FIG. 4 is a photomicrograph of a slice of a cerebral hippocampus tissue from the control group, and FIG. 5 is a photomicrograph of a slice of a cerebral hippocampus tissue from the 6-formyl-pterin-administering group. […]

[4] = literature; cited from earlier work
[5] = background art; cited from earlier work

Row | Compound | amount of active oxygens generated from KO2 ([1]; 1 mM 6-formyl-pterin) | amount of active oxygens generated from KO2 ([1]; from 0.1 mM 6-formyl-pterin) | amount of chemiluminescence, i.e., the amount of active oxygens ([2]; 100 μM, vs PBS control (FIG. 1, curve b)) | amount of chemiluminescence, i.e., the amount of active oxygens ([2]; 250 μM, vs PBS control (FIG. 1, curve c)) | amount of chemiluminescence, i.e., the amount of active oxygens ([2]; 500 μM, vs PBS control (FIG. 1, curve d)) | death (acute toxicity) (rats) | delayed neuronal death [3] | state of neurons in cerebral hippocampus tissue slice (FIG. 5) ([3]; control: neurons completely dropped) | antioxidative activity against active oxygens [4] | teratogenicity [5]
1 | Nc1nc2ncc(C=O)nc2c(=O)[nH]1 [6-formyl-pterin] | almost disappeared | lowered | significantly suppressed | almost disappeared | almost disappeared | No death was observed | suppressed | many neurons were living | – | –
2 | Nc1nc2ncc([C@H](O)[C@H](O)CO)nc2c(=O)[nH]1 [NP, 2-amino-4-oxo-6-(D-erythro-1',2',3'-trihydroxypropyl)-pteridine] | – | – | – | – | – | – | – | – | antioxidative activity against active oxygens | –
3 | Nc1nc2c(c(=O)[nH]1)NC([C@H](O)[C@H](O)CO)CN2 (some centres unmarked) [NPH4, 5,6,7,8-tetrahydroneopterin] | – | – | – | – | – | – | – | – | potent antioxidative activity | exhibits teratogenicity
